Data from patent US20230303557A1, “CRYSTALLINE FORM OF TLR8 AGONIST” (CHIA TAI TIANQING PHARMACEUTICAL GROUP CO., LTD., priority 2020, published 2023).
Counter-ions that a name gives are not always drawn. Blank lines part the entries; values can stand above or below the compound they belong to.

Legend:
[1] = Accelerated stability testing (40±2° C./75±5% RH); type: physicochemical
Description: Inner packaging: a double-layer medical low-density polyethylene bag; outer packaging: an aluminum foil bag.
Test conditions: 40±2° C./75±5% RH.

[2] = High-temperature (60° C.) stability testing; type: physicochemical
Description: 2) Testing for the Effect of Temperature
Each sample was placed on an open watch glass and tested under high-temperature conditions (60° C.).

[3] = High-humidity (25° C./92.5 RH) stability testing; type: physicochemical; conditions: for Appearance / Content / Enantiomer / Total impurity content / Water: 25° C./92.5RH
Description: 3) Testing for the Effect of Humidity
Each sample was placed in an open low-form weighing bottle and tested under high-humidity conditions (25° C./92.5 RH).

Photostability testing = type: physicochemical; conditions: for Appearance / Content / Enantiomer / Total impurity content / Water: photostability
Excerpt: 1) Photostability Testing
Two test samples (one as a 5-day test sample, the other as a 10-day test sample) and two controls (one as a 5-day control, the other as a 10-day control) were used. The test samples were spread as thin layers on clean watch glasses and covered with quartz glass covers. The controls were packaged in the same manner as the test samples except that the watch glasses were covered with aluminum film.
Test conditions: a photostability tester.

human TLR8 = human TLR8 (Homo sapiens (Human), UniProt Q9NR97); test: HEK-Blue hTLR8 SEAP reporter agonist assay; type: cell-based; conditions: HEK-Blue hTLR8 cells, 24 hours, SEAP OD650
Excerpt: (§1) Experimental Example 1: Screening for In Vitro Receptor Binding Activity of Human Toll-Like Receptor 7 (TLR7) and Human Toll-Like Receptor 8 (TLR8)
(§2) The HEK-Blue™ hTLR7 (catalog No.: hkb-htlr7) and HEK-Blue™ hTLR8 (catalog No.: hkb-htlr8) cell lines used in this experiment were purchased from InvivoGen. The two cell lines were constructed by a human embryonic kidney 293 cell line stably co-transfecting hTLR7 or hTLR8 and inducing expression of Secreted Alkaline Phosphatase (SEAP) reporter gene, wherein SEAP reporter gene was regulated by an IFN-β promoter. […]
(§3) 2. […] The cells were counted and the cell suspension was adjusted to 500,000 cells/mL with the culture medium. […]
(§4) 4. Activity assay on the compound: 20 µL of the induced cell supernatant from each well was added to a cell culture plate containing 180 µL of QUANTI-Blue™ reagent, and after incubation at 37° C. for 1 hour, the optical density absorbance at 650 nm (OD650) was assayed for each well using a multi-functional microplate reader.
(§5) 5. Activity assay on the cells: luciferase signal (RLU) was detected using a multi-functional microplate reader as per the process described in the instructions of ATPlite 1 Step.
(§6) 6. Data analysis: compound activity: OD650 values were analyzed using a GraphPad Prism software and the dose-response curves of the compound were fitted to calculate EC50 values (half maximal effect concentration) for the compound.

[4] = Pharmacokinetic study in mice; type: in vivo; conditions: mouse, plasma
Description: Experimental Example 3: Pharmacokinetic Study in Mice
This experiment was intended to evaluate the pharmacokinetic behavior of the compound after a single intravenous injection or intragastric administration in mice.
The concentration of the test compound in plasma was determined by high performance liquid chromatography-tandem mass spectrometry (LC-MS/MS). The retention times of the compound and internal standard, chromatogram acquisitions and integrals of chromatograms were processed using the software Analyst (Applied Biosystems), and the data statistics were processed using the software Watson LIMS (Thermo Fisher Scientific) or Analyst (Applied Biosystems).
The plasma concentrations were processed using a non-compartmental model of WinNonlin™ Version 6.3 (Pharsight, Mountain View, CA), a pharmacokinetic software, and the pharmacokinetic parameters were calculated using a linear-log trapezoidal method.
The related pharmacokinetic parameters in the mice at 1 mg/Kg intravenous injection and 5 mg/Kg oral intragastric administration of the hydrochloride of the compound of formula (I) are shown in Table 4 below.

human TLR7 = human TLR7 (Homo sapiens (Human), UniProt Q9NYK1); test: HEK-Blue hTLR7 SEAP reporter agonist assay; type: cell-based; conditions: HEK-Blue hTLR7 cells, 24 hours, SEAP OD650
Excerpt: as §1, §2, §3, §4, §5, §6

[5] = Day 5, control group (aluminum film)
[6] = Day 10, control group (aluminum film)
[7] = oral intragastric administration 5 mg/Kg

human TLR7, sequence (Q9NYK1 27-1049): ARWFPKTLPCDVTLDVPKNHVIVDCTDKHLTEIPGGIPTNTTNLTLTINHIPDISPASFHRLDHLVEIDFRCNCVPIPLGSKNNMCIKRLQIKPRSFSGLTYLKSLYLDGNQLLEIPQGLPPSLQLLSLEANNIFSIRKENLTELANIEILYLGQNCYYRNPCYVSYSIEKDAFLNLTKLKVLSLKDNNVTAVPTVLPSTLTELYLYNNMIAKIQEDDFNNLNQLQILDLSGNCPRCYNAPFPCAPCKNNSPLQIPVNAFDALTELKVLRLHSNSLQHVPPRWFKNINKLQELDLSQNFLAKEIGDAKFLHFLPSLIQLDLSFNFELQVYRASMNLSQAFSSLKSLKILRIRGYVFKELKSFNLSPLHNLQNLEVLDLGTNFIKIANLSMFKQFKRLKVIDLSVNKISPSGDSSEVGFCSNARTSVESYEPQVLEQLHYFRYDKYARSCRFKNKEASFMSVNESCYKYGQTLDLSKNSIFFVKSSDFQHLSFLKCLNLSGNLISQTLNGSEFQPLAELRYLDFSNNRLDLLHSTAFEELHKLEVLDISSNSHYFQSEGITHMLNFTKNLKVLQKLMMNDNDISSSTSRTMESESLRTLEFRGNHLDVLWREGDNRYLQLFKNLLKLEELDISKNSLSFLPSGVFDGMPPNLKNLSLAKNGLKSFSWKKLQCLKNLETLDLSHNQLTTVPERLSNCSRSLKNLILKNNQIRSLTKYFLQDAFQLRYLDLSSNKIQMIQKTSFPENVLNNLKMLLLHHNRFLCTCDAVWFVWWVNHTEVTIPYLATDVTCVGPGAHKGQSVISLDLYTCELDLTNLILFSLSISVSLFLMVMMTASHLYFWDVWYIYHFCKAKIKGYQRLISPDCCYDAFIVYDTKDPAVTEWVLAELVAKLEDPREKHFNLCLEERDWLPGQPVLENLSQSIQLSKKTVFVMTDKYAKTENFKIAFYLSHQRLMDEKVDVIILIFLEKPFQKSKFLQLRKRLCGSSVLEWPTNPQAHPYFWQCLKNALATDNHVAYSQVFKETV
human TLR8, sequence (Q9NR97 27-1041): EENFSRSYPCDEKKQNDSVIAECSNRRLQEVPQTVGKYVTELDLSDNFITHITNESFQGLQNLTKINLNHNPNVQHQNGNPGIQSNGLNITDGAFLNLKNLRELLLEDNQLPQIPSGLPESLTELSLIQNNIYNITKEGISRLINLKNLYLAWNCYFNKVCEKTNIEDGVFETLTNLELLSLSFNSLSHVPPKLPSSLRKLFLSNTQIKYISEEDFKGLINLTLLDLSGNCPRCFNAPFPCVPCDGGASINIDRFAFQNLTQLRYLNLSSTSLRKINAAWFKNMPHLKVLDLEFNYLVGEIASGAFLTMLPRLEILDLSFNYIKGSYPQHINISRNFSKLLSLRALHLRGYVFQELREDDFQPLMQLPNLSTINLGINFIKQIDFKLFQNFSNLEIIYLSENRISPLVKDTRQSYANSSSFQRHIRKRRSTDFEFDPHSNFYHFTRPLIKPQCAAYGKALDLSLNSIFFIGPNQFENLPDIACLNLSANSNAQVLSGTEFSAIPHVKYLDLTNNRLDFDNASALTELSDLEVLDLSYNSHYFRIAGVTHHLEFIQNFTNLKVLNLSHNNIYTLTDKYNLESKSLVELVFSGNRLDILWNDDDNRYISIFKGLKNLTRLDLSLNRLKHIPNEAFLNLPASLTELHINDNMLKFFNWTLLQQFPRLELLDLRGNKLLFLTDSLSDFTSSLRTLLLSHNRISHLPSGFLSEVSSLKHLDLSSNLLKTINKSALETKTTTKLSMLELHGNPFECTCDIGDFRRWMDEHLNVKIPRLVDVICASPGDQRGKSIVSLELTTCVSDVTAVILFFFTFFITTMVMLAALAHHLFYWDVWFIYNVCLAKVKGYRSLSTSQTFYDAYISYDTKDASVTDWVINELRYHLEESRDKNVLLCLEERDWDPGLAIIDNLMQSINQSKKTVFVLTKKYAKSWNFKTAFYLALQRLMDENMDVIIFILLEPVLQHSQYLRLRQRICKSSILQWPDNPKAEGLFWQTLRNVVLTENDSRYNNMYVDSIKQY

Appearance ([1]; Month 1): Off-white powder
Content ([1]; Month 1): 98.9%
Total impurity content ([1]; Month 1): <0.05%
Water ([1]; Month 1): 0.30%
Appearance ([1]; Month 2): Off-white powder
Content ([1]; Month 2): 99.5%
Total impurity content ([1]; Month 2): <0.05%
Water ([1]; Month 2): 0.31%
Appearance ([1]; Month 3): Off-white powder
Content ([1]; Month 3): 98.8%
Enantiomer ([1]; Month 3): 0.32%
Total impurity content ([1]; Month 3): <0.05%
Water ([1]; Month 3): 0.28%
XRPD ([1]; Month 3): Crystal form A
Appearance ([1]; Month 6): Off-white powder
Content ([1]; Month 6): 99.3%
Enantiomer ([1]; Month 6): 0.34%
Total impurity content ([1]; Month 6): <0.05%
Water ([1]; Month 6): 0.34%
Appearance ([1]; initial value): Off-white powder
Content ([1]; initial value): 98.3%
Enantiomer ([1]; initial value): 0.34%
Total impurity content ([1]; initial value): <0.05%
Water ([1]; initial value): 0.19%
XRPD ([1]; initial value): Crystal form A
High-temperature stability (conclusion) ([2]; 5-day, 10-day and 30-day): good high-temperature stability
Appearance ([2]; Day 5): Off-white powder
Content ([2]; Day 5): 99.1%
Enantiomer ([2]; Day 5): 0.35%
Total impurity content ([2]; Day 5): <0.05%
Water ([2]; Day 5): 0.25%
Appearance ([2]; Day 10): Off-white powder
Content ([2]; Day 10): 99.0%
Enantiomer ([2]; Day 10): 0.37%
Total impurity content ([2]; Day 10): <0.05%
Water ([2]; Day 10): 0.24%
Appearance ([2]; Day 30): Off-white powder
Content ([2]; Day 30): 98.2%
Enantiomer ([2]; Day 30): 0.34%
Total impurity content ([2]; Day 30): <0.05%
Water ([2]; Day 30): 0.26%
Appearance ([2]; initial value): Off-white powder
Content ([2]; initial value): 98.3%
Enantiomer ([2]; initial value): 0.34%
Total impurity content ([2]; initial value): <0.05%
Water ([2]; initial value): 0.19%
High-humidity stability (conclusion) ([3]; 25° C./92.5 RH, 5-day, 10-day and 30-day): good high-humidity stability
Appearance ([3]; Day 5): Off-white powder
Content ([3]; Day 5): 98.8%
Enantiomer ([3]; Day 5): 0.35%
Total impurity content ([3]; Day 5): <0.05%
Water ([3]; Day 5): 0.29%
Appearance ([3]; Day 10): Off-white powder
Content ([3]; Day 10): 99.4%
Enantiomer ([3]; Day 10): 0.35%
Total impurity content ([3]; Day 10): <0.05%
Water ([3]; Day 10): 0.29%
Appearance ([3]; Day 30): Off-white powder
Content ([3]; Day 30): 98.7%
Enantiomer ([3]; Day 30): 0.35%
Total impurity content ([3]; Day 30): <0.05%
Water ([3]; Day 30): 0.30%
Appearance ([3]; initial value): Off-white powder
Content ([3]; initial value): 98.3%
Enantiomer ([3]; initial value): 0.34%
Total impurity content ([3]; initial value): <0.05%
Water ([3]; initial value): 0.19%
Photostability (conclusion) (Photostability testing; lighting conditions, 5-day and 10-day): good photostability
Appearance (Photostability testing; [5]): Off-white powder
Content (Photostability testing; [5]): 98.7%
Enantiomer (Photostability testing; [5]): 0.35%
Total impurity content (Photostability testing; [5]): <0.05%
Water (Photostability testing; [5]): 0.25%
Appearance (Photostability testing; Day 5, test group): Off-white powder
Content (Photostability testing; Day 5, test group): 98.8%
Enantiomer (Photostability testing; Day 5, test group): 0.34%
Total impurity content (Photostability testing; Day 5, test group): <0.05%
Water (Photostability testing; Day 5, test group): 0.24%
Appearance (Photostability testing; [6]): Off-white powder
Content (Photostability testing; [6]): 99.1%
Enantiomer (Photostability testing; [6]): 0.36%
Total impurity content (Photostability testing; [6]): <0.05%
Water (Photostability testing; [6]): 0.25%
Appearance (Photostability testing; Day 10, test group): Off-white powder
Content (Photostability testing; Day 10, test group): 98.6%
Enantiomer (Photostability testing; Day 10, test group): 0.34%
Total impurity content (Photostability testing; Day 10, test group): <0.05%
Water (Photostability testing; Day 10, test group): 0.25%
Appearance (Photostability testing; initial value): Off-white powder
Content (Photostability testing; initial value): 98.3%
Enantiomer (Photostability testing; initial value): 0.34%
Total impurity content (Photostability testing; initial value): <0.05%
Water (Photostability testing; initial value): 0.19%
SMILES: CCCC[C@](C)(Cc1ncn[nH]1)Nc1nc(N)nc2cnccc12
Stability under accelerated conditions (conclusion, XRPD) ([1]; Month 3): stays stable under accelerated conditions

EC50 (human TLR8): 0.003 µM
bioavailability ([4]; 5 mg/Kg oral vs 1 mg/Kg intravenous, read-out: Bioavailability (F%)): 27.7%
AUC(0-t) ([4]; intravenous injection 1 mg/Kg): 0.45 µM·h
clearance ([4]; intravenous injection 1 mg/Kg): 90.2 mL/min/kg
Vd ([4]; intravenous injection 1 mg/Kg, read-out: Vdss): 1.75 L/kg
half-life ([4]; intravenous injection 1 mg/Kg, read-out: t½ (converted)): 15 min
AUC(0-t) [4, 7]: 0.624 µM·h
Cmax [4, 7]: 421 nM
Tmax [4, 7]: 30 min
EC50 (human TLR7): 33.3 µM
SMILES: CCCC[C@](C)(Cc1ncn[nH]1)Nc1nc(N)nc2cnccc12 [Hydrochloride of compound of formula (I)]
